Results as given in patent EP0450066B1, “CARBOSTYRIL DERIVATIVES” (OTSUKA PHARMACEUTICAL CO., LTD., priority 1988, dated 1989).
Where a name gives a salt, the structure may show the parent alone. Read-outs that look alike come from different tables or passages of the source.

How the values were obtained:
platelets = assay: Platelet aggregation inhibitory activity (method by Born et al., platelet rich plasma, ADP or collagen as inducer); format: cell-based; details: rabbit PRP, 400,000 platelets/µl, 37°C
Procedure: This sample was subjected to centrifugation at 1,100 rpm for 10 minutes to obtain a platelet rich plasma (PRP). The remaining sample was subjected to further centrifugation at 3,000 rpm for 15 minutes to obtain a platelet poor plasma (PPP).
The number of platelets in the PRP obtained above was counted by coulter Counter manufactured by Coulter Electronics Inc. Then, the PRP was diluted with the PPP so that the number of platelets in the PRP after dilution became 400,000 platelets/µl, whereby a PRP solution was prepared.
There were placed in a cell for aggregation determination, 2 µl of a solution containing a test compound at a given concentration and 200 µl of the PRP solution prepared above. The cell was heated at 37°C for 1 minute. Then, to the cell contents was added 20 µl of adenosine diphosphate (ADP, manufactured by Sigma Co.) or 20 µl of a collagen suspension (Collagen Reagent Horm, manufactured by Hormon-Chemie Co.) to induce aggregation of platelets. Then, the platelet aggregation was determined for change in transmittance, and a platelet aggregation curve was drawn.
The mixture aggregation rate (MAR) of platelets was calculated from the platelet aggregation curve, using the following formula.
In the above, MAR was calculated also for a control containing no test compound. Using this MAR as a base, the platelet aggregation inhibitions rate (%) of each test compound at various concentrations were calculated from the following formula. Inhibition rate (%) = [1-(MAR of test compound-containing PRP)/(MAR of test compound-free PRP)] x100 [formula]

mongrel dogs = assay: Increase in heart rate in anesthetized mongrel dogs; format: in vivo; details: mongrel dogs under pentobarbital sodium anesthesia, artificial breathing; 30 µg/kg through cannula in femoral artery
Procedure: Increase in heart rate as well as hypotensive activity of test compounds were measured as follows by using mongrel dogs (body weight = 10-20 kg). That is, mongrel dogs were put under anesthesia by intravenous administration of pentobarbital sodium, then fixed at the back position, and subjected to testing under artificial breathing condition. Blood pressure was measured by using a blood pressure transducer (P23XL, manufactured by Gould Statham Instruments, Inc.) via a cannula inserted into the femoral artery of the mongrel dog. Heart rate was measured via a tachometer, based on the pulse wave of the blood pressure. These signals were recorded on a thermal-pen type recorder (Recti-Horiz 8K, manufactured by Nihon Denki San-ei).
The test compounds mentioned in the Pharmacological Test I were also used as test compounds in this Test-II. Each of them was dissolved in a mixed solution of N,N'-dimenthylformamide and a physiological saline solution, and each resulting solution was administered to the test dogs through the cannulas inserted into their femoral arteries, in an amount of 30 µg (test compound)/kg of body weight. The heart rate of each dog after the administration of test compound was measured as mentioned above, whereby the maximum increase in heart rate was obtained.

[1] = Oryctolagus cuniculus, Platelet, aggregation induced by ADP, final concentration 7.5 µM, read-out: IC50 (µM) ADP
[2] = Oryctolagus cuniculus, Platelet, aggregation induced by collagen, final concentration 20 µg/ml, read-out: IC50 (µM) Collagen
[3] = aggregation induced by ADP, final concentration 7.5 µM, read-out: IC50 (µM) ADP
[4] = aggregation induced by collagen, final concentration 20 µg/ml, read-out: IC50 (µM) Collagen

Row | IC50 (platelets; [1]) [µM] | IC50 (platelets; [2]) [µM] | Molecule | Maximum increase in heart rate (beats/min) (Administration amount = 30 µg/kg) (mongrel dogs) | IC50 (platelets; [3]) [µM] | IC50 (platelets; [4]) [µM] | further results
1 |  |  | CC1CCCC(C)N1CCN(CC1CCCCCCC1)C(=O)CCCCOc1ccc2[nH]c(=O)ccc2c1 (stereo not drawn) [Example 9] | 0 | 4.5 | 1.6 | 
2 |  |  | CCN(CC)CCN(CC1CCCCCCC1)C(=O)CCCCOc1ccc2c(c1)CCC(=O)N2 [Example 20] | 4 | 21.2 | 7 | 
3 |  |  | O=C(CCCCOc1ccc2[nH]c(=O)ccc2c1)N(CCN1CCC(O)C1)CC1CCCCCCC1.O=C(O)C(=O)O (stereo not drawn) [Example 6] | 5 | 3.5 | 1.3 | 
4 |  |  | CCN(CC)CCCN(CC1CCCCCCC1)C(=O)CCCCOc1ccc2[nH]c(=O)ccc2c1 [Test compound 17, 6-{4-[N-cyclooctylmethyl-N-(3-diethylaminopropyl)-aminocarbonyl]butoxy}carbostyril oxalate] |  |  |  | IC50 (platelets; aggregation induced by ADP, final concentration 7.5 µM, listed as 28, oxalate, read-out: IC50 (µM) ADP): 2.8 µM; IC50 (platelets; aggregation induced by collagen, final concentration 20 µg/ml, listed as 28, oxalate, read-out: IC50 (µM) Collagen): 1.2 µM
5 |  |  | CCN(CC)CCN(CC1CCCCCCC1)C(=O)CCCCOc1ccc2c(c1)CCC(=O)N2 [Test compound 20, 6-{4-[N-cyclooctylmethyl-N-(2-diethylaminoethyl)-aminocarbonyl]butoxy}3,4-dihydrocarbostyril oxalate] |  |  |  | IC50 (platelets; aggregation induced by ADP, final concentration 7.5 µM, listed as 34, oxalate, read-out: IC50 (µM) ADP): 0.84 µM; IC50 (platelets; aggregation induced by collagen, final concentration 20 µg/ml, listed as 34, oxalate, read-out: IC50 (µM) Collagen): 0.48 µM
6 |  |  | O=C(CCCCOc1ccc2[nH]c(=O)ccc2c1)N(CCN1CCCCC1CO)CC1CCCCCCC1 (stereo not drawn) [Example 4] | 6 | 2.7 | 1.6 | 
7 |  |  | 6-[4-{N-cyclohexylmethyl-N-[2-(1-pyrrolidinyl)-ethyl]aminocarbonyl}butoxy]carbostyril [Example 1] |  | 3.4 | 1.1 | 
8 | 5 |  | CCN(CC)CCCN(CC1CCCCCCC1)C(=O)CCCCOc1ccc2[nH]c(=O)ccc2c1 [Example 17] |  |  | 2.8 | 
9 |  |  | O=C(CCCCOc1ccc2[nH]c(=O)ccc2c1)N(CCn1ccnc1)CC1CCCCC1 [Example 12] | 12 | 6 | 3.2 | 
10 |  |  | CC(=O)NCCN(CC1CCCCCCC1)C(=O)CCCCOc1ccc2[nH]c(=O)ccc2c1 [Test compound 24, 6-{4-[N-cyclooctylmethyl-N-(2-acetylaminoethyl)-aminocarbonyl]butoxy}carbostyril] |  |  |  | IC50 (platelets; aggregation induced by ADP, final concentration 7.5 µM, listed as 42, read-out: IC50 (µM) ADP): 1.9 µM; IC50 (platelets; aggregation induced by collagen, final concentration 20 µg/ml, listed as 42, read-out: IC50 (µM) Collagen): 1.6 µM
11 | 1.2 | 0.8 | CCN(CC)C[C@H](CO)N(CC1CCCCCCC1)C(=O)CCCCOc1ccc2[nH]c(=O)ccc2c1 [Example 22] |  |  |  | 
12 | 2.2 | 1.3 | CC(=O)NCCN(CC1CCCCCCC1)C(=O)CCCCOc1ccc2[nH]c(=O)ccc2c1 [Example 24] |  |  |  | 
13 | 2.2 | 2.2 | O=C(CCCCOc1ccc2[nH]c(=O)ccc2c1)N(CCSC1CCCCO1)CC1CCCCC1 (stereo not drawn) [Example 45] |  |  |  | 
14 |  |  | O=C(CCCCOc1ccc2[nH]c(=O)ccc2c1)N(CCN1CCOCC1)CC1CCCCCCC1 [Example 7] |  | 1.5 | 0.65 | 
15 | 1.5 | 0.71 | CCN(CC)C(=O)CN(CC1CCCCCCC1)C(=O)CCCCOc1ccc2[nH]c(=O)ccc2c1 [Example 19] |  |  |  | 
16 |  |  | CCN(CC)CCCCN(CC1CCCCCCC1)C(=O)CCCCOc1ccc2[nH]c(=O)ccc2c1.O=C(O)C(=O)O [Test compound 18, 6-{4-[N-cyclooctylmethyl-N-(4-diethylaminobutyl)-aminocarbonyl]butoxy}carbostyril oxalate] | 2 |  |  | IC50 (platelets; aggregation induced by ADP, final concentration 7.5 µM, listed as 29, oxalate, read-out: IC50 (µM) ADP): 8.3 µM; IC50 (platelets; aggregation induced by collagen, final concentration 20 µg/ml, listed as 29, oxalate, read-out: IC50 (µM) Collagen): 3.7 µM
17 | 2.1 | 1.4 | CCN(CCO)CCN(CC1CCCCCCC1)C(=O)CCCCOc1ccc2[nH]c(=O)ccc2c1 [Example 25] |  |  |  | 
18 | 1.1 | 0.53 | CSCCC(CO)N(CC1CCCCC1)C(=O)CCCCOc1ccc2[nH]c(=O)ccc2c1 (stereo not drawn) [Example 46] |  |  |  | 
19 | 3.6 | 1.3 | C=CCN(CC)CCN(CC1CCCCCCC1)C(=O)CCCCOc1ccc2[nH]c(=O)ccc2c1 [Example 26] |  |  |  | 
20 | 0.63 | 0.49 | CSCCC(COC(C)=O)N(CC1CCCCC1)C(=O)CCCCOc1ccc2[nH]c(=O)ccc2c1 (stereo not drawn) [Example 47] |  |  |  | 
21 |  |  | 6-[4-{N-cyclooctylmethyl-N-[2-(2β-dimethylamino-methyl-1-pyrrolidinyl)ethyl]aminocarbonyl}butoxy]-carbostyril difumarate [Test compound 10] |  | 3.9 | 1.8 | 
22 |  |  | 6-[4-(N-cyclooctylmethyl-N-diethylamidomethyl)-aminocarbonyl]butoxy}carbostyril [Test compound 19] |  | 2.1 | 1.3 | 

Row | Molecule | IC50 (platelets; [1]) [µM] | IC50 (platelets; [2]) [µM] | Maximum increase in heart rate (beats/min) (Administration amount = 30 µg/kg) (mongrel dogs) | IC50 (platelets; [3]) [µM] | IC50 (platelets; [4]) [µM] | further results
23 | O=C(CCCCOc1ccc2[nH]c(=O)ccc2c1)N(CCN1CCC(O)C1)CC1CCCCCCC1 (stereo not drawn) [Test compound 6, 6-[4-{N-cyclooctylmethyl-N-[2-(3-hydroxy-1-pyrrolidinyl)ethyl]aminocarbonyl}butoxy]carbostyril oxalate] | 1.7 | 0.5 |  |  |  | 
24 | CCN(CC)CCN(CC1CCCCCCC1)C(=O)CCCCOc1ccc2[nH]c(=O)ccc2c1 [Example 16] | 3 | 1.1 | 7 |  |  | 
25 | CCN(CC)C[C@H](C)N(CC1CCCCCCC1)C(=O)CCCCOc1ccc2[nH]c(=O)ccc2c1 [Example 21] | 5.4 | 3.2 | 7 |  |  | 
26 | O=C(CCCCOc1ccc2[nH]c(=O)ccc2c1)N(CCS)CC1CCCCC1 [Example 44] | 5 | 3.6 | 11 |  |  | 
27 | O=C(CCCCOc1ccc2[nH]c(=O)ccc2c1)N(CCN1CCC(O)CC1)CC1CCCCCCC1 [Test compound 8, 6-[4-{N-cyclooctylmethyl-N-[2-(4-hydroxy-1-piperidinyl)ethyl]aminocarbonyl}butoxy]carbostyril] | 1.7 | 0.7 |  |  |  | 
28 | CCN(CC)CCCCN(CC1CCCCCCC1)C(=O)CCCCOc1ccc2[nH]c(=O)ccc2c1 [Example 18] | 6 | 4.8 | 5 |  |  | 
